Reference: patent US7153852B2, “Indole compounds, process for producing the same and drugs containing the same as the active ingredient” (Ono Pharmaceutical Co., Ltd., priority 2001, dated 2006)

Biological target: T1, mouse DP receptors (Mus musculus, UniProt P70263)
T1 construct: expressed in transfected cells; host or cells: CHO cells (membrane preparation)
T1 sequence (P70263 1-357): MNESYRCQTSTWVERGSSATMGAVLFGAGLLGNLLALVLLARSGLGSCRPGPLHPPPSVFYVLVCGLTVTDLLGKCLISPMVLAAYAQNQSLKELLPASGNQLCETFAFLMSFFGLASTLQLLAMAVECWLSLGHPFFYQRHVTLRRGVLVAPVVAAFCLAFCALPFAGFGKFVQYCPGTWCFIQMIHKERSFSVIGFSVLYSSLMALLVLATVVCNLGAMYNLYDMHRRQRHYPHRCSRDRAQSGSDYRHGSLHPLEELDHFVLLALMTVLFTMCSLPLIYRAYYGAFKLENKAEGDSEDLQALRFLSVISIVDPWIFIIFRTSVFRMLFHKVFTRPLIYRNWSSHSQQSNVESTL
Assay: Receptor binding test using prostanoid DP receptor-expressing cells (3H-PGD2 binding inhibition)
Settings: membrane of CHO cells expressing mouse DP receptors; 3H-PGD2 2.5 nmol/L; Ki=IC50/(1+([L]*/Kd))
Method: (i) Receptor Binding Test Using Prostanoid DP Receptor-Expressing Cells
CHO cells expressing mouse DP receptors were prepared according to the method of Hirata et al. (Proc. Natl. Acad. Sci., 91, 11192–11196 (1994)) and used as a membrane standard.
A reaction solution (200 μL) containing the prepared membrane standard (30–166 μg) and ^3H-PGD2 was incubated at room temperature for 20 minutes. The reaction was stopped with an ice-cold buffer (1 mL) and the binding ^3H-PGD2 was trapped in on a glass filter by immediate aspiration-filtration under a reduced pressure, and its binding radioactivity was measured using a liquid scintillation counter.
Kd value and Bmax value were obtained from Scatchard plots (Ann. N. Y. Acad. Sci., 51, 660 (1949)]. Non-specific binding was obtained as the binding radioactivity in the presence of unlabeled PGD2 at an excess amount (10 μmol/L). 3H-PGD2 binding inhibition by the compound of the present invention was measured by adding ^3H-PGD2 (2.5 nmol/L) and the compound of the present invention as various concentrations. Also, the following buffers were used for the reactions.
The dissociation constant (Ki) (μmol/L) of each compound was obtained by the following equation. Ki=IC50/(1+([L]*/Kd)) • [L*]: Concentration of radioligand

Ki: 31 nM
Structure (SMILES): Cc1cc2c(CC(=O)O)cccc2n1C(=O)c1ccc(OC[C@H]2Cc3ccccc3O2)cc1 [2(16), 1-(4-((2R)-2,3-dihydrobenzofuran-2-ylmethoxy)benzoyl)-2-methyl-1H-indol-4-ylacetic acid]
